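Briefly, cells in 96-well plates were exposed to five compound concentrations for 48 h, and endpoints were estimated by linear interpolation. Abbreviation: GI50, concentration required for 50% inhibition of growth.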 The source made the active and inactive calls. Rule as the data show it: active = GI50 up to about 1.1 µM and inactive = higher.
Key:
Test in all cases: NCI anticancer screen, dose series, 48 h
HOP-62 = system: HOP-62
NCI-H460 = system: NCI-H460
CAKI-1 = system: CAKI-1
A549 = system: A549
SK-MEL-28 = system: SK-MEL-28
HCT-116 = system: HCT-116
TK-10 = system: TK-10
MOLT-4 = system: MOLT-4
SW-620 = system: SW-620
UACC-257 = system: UACC-257
HL-60 = system: HL-60
SF-295 = system: SF-295
OVCAR-3 = system: OVCAR-3
OVCAR-8 = system: OVCAR-8
HCT-15 = system: HCT-15
CCRF-CEM = system: CCRF-CEM
KM12 = system: KM12
SR = system: SR

Row | SMILES | GI50 (HOP-62) | GI50 (NCI-H460) | GI50 (CAKI-1) | GI50 (A549) | GI50 (SK-MEL-28) | GI50 (HCT-116) | GI50 (TK-10) | GI50 (MOLT-4) | GI50 (SW-620) | GI50 (UACC-257) | GI50 (HL-60) | GI50 (SF-295) | GI50 (OVCAR-3) | GI50 (OVCAR-8) | GI50 (HCT-15) [µM] | GI50 (CCRF-CEM) | GI50 (KM12) | GI50 (SR)
1 | O=C(CC1(O)C(=O)Nc2ccccc21)c1ccccc1O (stereo not given) | > 100 µM (inactive) | > 100 µM (inactive) | > 100 µM (inactive) | > 100 µM (inactive) | > 100 µM (inactive) | > 100 µM (inactive) | > 100 µM (inactive) | > 100 µM (inactive) | > 100 µM (inactive) | > 100 µM (inactive) | > 100 µM (inactive) | > 100 µM (inactive) | > 100 µM (inactive) | > 100 µM (inactive) | > 100 | – | – | –
2 | O=C(c1cc(=O)c2ccc(O)cc2o1)c1ccc(Cl)cc1Cl | 8.18 µM (inactive) | 6.01 µM (inactive) | > 69.7 µM (inactive) | > 30.8 µM (inactive) | > 59.3 µM (inactive) | 13.6 µM (inactive) | 38.5 µM (inactive) | 2.81 µM (inactive) | 12.2 µM (inactive) | 19.5 µM (inactive) | 1.26 µM (inactive) | 20.6 µM (inactive) | 15.5 µM (inactive) | 22.8 µM (inactive) | 4.63 | 7.35 µM (inactive) | 5.9 µM (inactive) | –
3 | Cc1nc2c(n1C(C)(C)C)C(=O)c1ccccc1C2=O | > 100 µM (inactive) | 36.7 µM (inactive) | – | 92 µM (inactive) | > 100 µM (inactive) | 54 µM (inactive) | 82 µM (inactive) | 49 µM (inactive) | > 100 µM (inactive) | 42.6 µM (inactive) | 46.2 µM (inactive) | 87.3 µM (inactive) | 38.6 µM (inactive) | 56.8 µM (inactive) | 56.6 | 73.8 µM (inactive) | 74.1 µM (inactive) | 45 µM (inactive)
4 | CC1=CC(C)(c2c[nH]c3ccccc23)CC(C)(C)c2c1[nH]c1ccccc21 (stereo not given) | 22.8 µM (inactive) | 17 µM (inactive) | – | 14 µM (inactive) | 14.5 µM (inactive) | 11.9 µM (inactive) | 43.1 µM (inactive) | 6.93 µM (inactive) | 16.9 µM (inactive) | 20.3 µM (inactive) | 6.46 µM (inactive) | 14.5 µM (inactive) | 14 µM (inactive) | 13.7 µM (inactive) | – | 9.55 µM (inactive) | 23.7 µM (inactive) | 12.5 µM (inactive)
5 | NC(=O)C12CC3CC(CC(Br)(C3)C1)C2 | > 100 µM (inactive) | > 100 µM (inactive) | > 100 µM (inactive) | > 100 µM (inactive) | > 100 µM (inactive) | > 100 µM (inactive) | > 100 µM (inactive) | > 100 µM (inactive) | > 100 µM (inactive) | > 100 µM (inactive) | > 100 µM (inactive) | > 100 µM (inactive) | > 100 µM (inactive) | > 100 µM (inactive) | > 100 | > 100 µM (inactive) | > 100 µM (inactive) | > 100 µM (inactive)
6 | O=C(OCc1ccccc1)N1N=NC2C1C1CC(OCc3ccccc3)(OCc3ccccc3)C2O1 (stereo not given) | > 100 µM (inactive) | > 100 µM (inactive) | > 100 µM (inactive) | > 100 µM (inactive) | > 100 µM (inactive) | – | – | > 100 µM (inactive) | > 100 µM (inactive) | > 100 µM (inactive) | > 100 µM (inactive) | > 100 µM (inactive) | > 100 µM (inactive) | – | > 100 | > 100 µM (inactive) | > 100 µM (inactive) | –
7 | O=C1c2ccccc2C(=O)c2c1ccc1c3ccccc3n(Cc3ccccc3)c21 | > 100 µM (inactive) | 88.9 µM (inactive) | > 100 µM (inactive) | > 100 µM (inactive) | – | > 100 µM (inactive) | – | > 100 µM (inactive) | > 100 µM (inactive) | – | > 100 µM (inactive) | > 100 µM (inactive) | > 100 µM (inactive) | > 100 µM (inactive) | > 100 | > 100 µM (inactive) | > 100 µM (inactive) | > 100 µM (inactive)
8 | C[C@@H](O)CCC(=O)c1ccoc1 | > 100 µM (inactive) | > 100 µM (inactive) | > 100 µM (inactive) | > 100 µM (inactive) | > 100 µM (inactive) | > 100 µM (inactive) | > 100 µM (inactive) | > 100 µM (inactive) | > 100 µM (inactive) | > 100 µM (inactive) | > 100 µM (inactive) | > 100 µM (inactive) | > 100 µM (inactive) | > 100 µM (inactive) | > 100 | > 100 µM (inactive) | > 100 µM (inactive) | > 84.3 µM (inactive)
9 | Cc1cc(N(CCC#N)CCC#N)ccc1/C=N\c1ccc(C(=O)NN2C(=O)/C(=C/c3ccc(N(CCC#N)CCC#N)cc3)N=C2c2cc([N+](=O)[O-])ccc2Cl)cc1 | 95.1 µM (inactive) | > 100 µM (inactive) | > 100 µM (inactive) | > 100 µM (inactive) | > 100 µM (inactive) | > 100 µM (inactive) | > 100 µM (inactive) | – | > 100 µM (inactive) | > 100 µM (inactive) | 61.1 µM (inactive) | – | > 100 µM (inactive) | > 100 µM (inactive) | 51.8 | 65.6 µM (inactive) | > 100 µM (inactive) | –
10 | CC1(Sc2ccccc2)CN(Cc2ccccc2)C1=O (stereo not given) | > 100 µM (inactive) | > 100 µM (inactive) | – | > 100 µM (inactive) | > 100 µM (inactive) | 60 µM (inactive) | > 100 µM (inactive) | 49.7 µM (inactive) | > 100 µM (inactive) | 54.5 µM (inactive) | 60.4 µM (inactive) | > 100 µM (inactive) | > 100 µM (inactive) | > 100 µM (inactive) | 75.2 | > 100 µM (inactive) | > 100 µM (inactive) | –
11 | C[C@]12CC/C(=N\OC(=O)Nc3ccccc3)C=C1CC[C@@H]1C2CC[C@@]2(C)C1CC[C@@H]2OC(=O)Nc1ccccc1 (stereo not given in full) | – | > 100 µM (inactive) | 3.27 µM (inactive) | > 100 µM (inactive) | – | > 100 µM (inactive) | > 100 µM (inactive) | > 100 µM (inactive) | > 100 µM (inactive) | – | 8.79 µM (inactive) | 47.9 µM (inactive) | > 100 µM (inactive) | > 100 µM (inactive) | 3.3 | > 100 µM (inactive) | 41.9 µM (inactive) | –
12 | COC(=O)n1c(C[P+](c2ccccc2)(c2ccccc2)c2ccccc2)cc2ccccc21 | 1.73 µM (inactive) | 1.43 µM (inactive) | 2.06 µM (inactive) | 2.22 µM (inactive) | 4.16 µM (inactive) | 1.11 µM (active) | 3.34 µM (inactive) | 1.64 µM (inactive) | 1.85 µM (inactive) | – | 0.869 µM (active) | 2.29 µM (inactive) | 1.01 µM (active) | 0.566 µM (active) | 13.3 | 0.931 µM (active) | 1.19 µM (inactive) | 2.67 µM (inactive)
13 | O/N=C1/C(=C/c2ccccc2)CCCC1C(NO)c1ccccc1 (stereo not given) | – | 79.6 µM (inactive) | – | 40.1 µM (inactive) | > 100 µM (inactive) | 48.1 µM (inactive) | > 100 µM (inactive) | 26.4 µM (inactive) | > 100 µM (inactive) | 38.5 µM (inactive) | 2.29 µM (inactive) | 78.3 µM (inactive) | > 100 µM (inactive) | 64 µM (inactive) | > 100 | – | 85.3 µM (inactive) | –
14 | COc1ccc(C)cc1-c1cc(Sc2ccccc2)c(-c2cc(C)ccc2OC)o1 | > 31.6 µM (inactive) | > 31.6 µM (inactive) | > 31.6 µM (inactive) | > 31.6 µM (inactive) | > 31.6 µM (inactive) | > 31.6 µM (inactive) | > 31.6 µM (inactive) | > 31.6 µM (inactive) | > 29.6 µM (inactive) | > 31.6 µM (inactive) | > 31.6 µM (inactive) | > 100 µM (inactive) | > 31.6 µM (inactive) | > 31.6 µM (inactive) | > 31.6 | > 31.6 µM (inactive) | > 31.6 µM (inactive) | –
15 | COc1cc(Nc2nc3cc(C)ccc3nc2-c2ccccc2)cc(OC)c1OC | – | 15.8 µM (inactive) | 27.5 µM (inactive) | 29.8 µM (inactive) | 16.6 µM (inactive) | 19.9 µM (inactive) | 42 µM (inactive) | 18.3 µM (inactive) | 58.1 µM (inactive) | 47.5 µM (inactive) | 22.5 µM (inactive) | 20.9 µM (inactive) | 18.5 µM (inactive) | 36.5 µM (inactive) | 15.5 | 29.8 µM (inactive) | 34.4 µM (inactive) | 16.2 µM (inactive)
16 | CC(C)[C@H]1CO[C@]2(C)[C@@H]3CN(Cc4ccccc4)C[C@@H]3C(=O)N12 | > 100 µM (inactive) | > 100 µM (inactive) | > 100 µM (inactive) | > 100 µM (inactive) | > 100 µM (inactive) | > 100 µM (inactive) | > 100 µM (inactive) | > 100 µM (inactive) | > 100 µM (inactive) | > 100 µM (inactive) | > 100 µM (inactive) | > 100 µM (inactive) | > 100 µM (inactive) | > 100 µM (inactive) | > 100 | > 100 µM (inactive) | > 100 µM (inactive) | > 100 µM (inactive)
17 | CN(C)c1n/c(=N/c2cccc(Cl)c2)ss1 | 68.5 µM (inactive) | 9.2 µM (inactive) | 19.1 µM (inactive) | 22.7 µM (inactive) | 12.1 µM (inactive) | 11.9 µM (inactive) | 55.2 µM (inactive) | 3.03 µM (inactive) | 5.52 µM (inactive) | 15.6 µM (inactive) | 3.74 µM (inactive) | 24.1 µM (inactive) | – | 12.9 µM (inactive) | 14.5 | 0.0405 µM (active) | 17.5 µM (inactive) | 4.12 µM (inactive)

Source: ChEMBL document CHEMBL1201862, “PubChem BioAssay data set” (2004)
